# Source: PMC12373499 (Nature Metabolism, 2025)
# Where “and” joins values, the source holds several entries; their conditions need not be identical. Equal values may be shown once. Read-outs that look alike come from different tables or passages of the source. *1 amine or outer side, *2 acyl side, *3 side chain or, on linkers, in order; H or OH if unused. Where a SMILES comes first, the peptide text is derived from it. Side-chain parts run from the residue outwards. [ ]: non-standard residue; d: D form. The star is where a group is joined. X1 = CN1C(=CC=CC=CC2=[N+](CCCCCC(=O)NCCN3C(=O)CC(*)C3=O)c3ccccc3C2(C)C)C(C)(C)c2ccccc21; X2 = CN1C(=CC=CC2=[N+](CCCCCC(=O)NCCN3C(=O)CC(*)C3=O)c3ccccc3C2(C)C)C(C)(C)c2ccccc21; C20 diacid = O=C(O)CCCCCCCCCCCCCCCCCCC(=O)*; γGlu = O=C(O)[C@H](CCC(=O)[*:2])N[*:1]; AEEA = NCCOCCOCC(=O)O; Aib = CC(C)(N)C(=O)O
# Assays:
# [1] = target: Nluc-tagged human GIPR (human) (UniProt P48546); assay: FRET or BRET
# [2] = target: Nluc-tagged human GLP1R (human) (UniProt P43220); assay: FRET or BRET
# [3] = target: human GIPR (Nluc-GIPR) (human) (UniProt P48546); assay: FRET or BRET; NanoBRET saturation binding on HEK293T cells transiently expressing Nluc-GLP1R or Nluc-GIPR; PBS with 0.1% BSA and 0.01% NanoGlo; daLUXendin added over a range of concentrations, without or with 1 uM GIP and 1 uM Exendin-9 to determine specific binding; fit 'One Site - Specific Binding'
# [4] = target: human GLP1R (Nluc-GLP1R) (human) (UniProt P43220); assay: as above
# [5] = target: human GIPR (Nluc-GIPR) (human) (UniProt P48546); assay: as above; remark: listed apart in the source
# [6] = target: human GLP1R (Nluc-GLP1R) (human) (UniProt P43220); assay: as above; remark: listed apart in the source
# Nluc–GIPR (hGIPR) = target: T1, Nluc–GIPR (hGIPR) (Homo sapiens, UniProt P48546); assay: NanoBRET saturation binding assay, HEK293T cells
# T1 construct: expressed in transfected cells; host or cells: HEK293T cells, transient expression
# T1 sequence (P48546 22-466): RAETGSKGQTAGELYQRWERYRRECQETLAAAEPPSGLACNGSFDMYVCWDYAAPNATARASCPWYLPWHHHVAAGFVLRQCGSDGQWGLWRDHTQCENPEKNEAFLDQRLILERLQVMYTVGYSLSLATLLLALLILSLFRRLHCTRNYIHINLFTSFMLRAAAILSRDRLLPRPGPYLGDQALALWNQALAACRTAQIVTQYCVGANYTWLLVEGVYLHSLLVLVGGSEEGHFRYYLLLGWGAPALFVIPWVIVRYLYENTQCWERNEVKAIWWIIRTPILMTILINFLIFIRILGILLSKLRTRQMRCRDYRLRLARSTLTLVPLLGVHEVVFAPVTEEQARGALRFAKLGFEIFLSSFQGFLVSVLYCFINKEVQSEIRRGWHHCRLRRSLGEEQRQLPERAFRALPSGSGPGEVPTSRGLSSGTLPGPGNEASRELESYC
# Procedure: (§1) HEK293T cells (RRID:CVCL_0063) were cultured in DMEM/F12 GlutaMAX (ThermoFisher), supplemented with 10% FBS and 1% antibiotic-antimycotic solution and cultured at 37 °C, 5% CO2. HEK293T cells were authenticated at source using STR profiling. […] Media was then removed and the cells were incubated in PBS supplemented with 0.1% BSA and 0.01% NanoGlo (Promega). […] Plates were read using a PheraSTAR microplate reader, using the NanoBRET filter module. BRET ratios (λacceptor/λdonor) were calculated, and saturation data fit using the ‘One Site – Specific Binding’ equation of GraphPad Prism 10. Competition binding was fit using the ‘One Site – Fit Ki’ equation.
# Nluc–GLP1R (hGLP1R) = target: T2, Nluc–GLP1R (hGLP1R) (Homo sapiens, UniProt P43220); assay: NanoBRET saturation binding assay, HEK293T cells
# T2 construct: expressed in transfected cells; host or cells: HEK293T cells, transient expression
# Procedure: as §1
# mGIPR = target: T3, mGIPR (Mus musculus, UniProt Q0P543); assay: HTRF cAMP assay in transiently transfected AD293 cells; format: cell-based; details: based upon cAMP assays and binding affinity
# T3 construct: expressed in transfected cells; host or cells: AD293 cells, transient transfection (Lipofectamine 2000)
# T3 sequence (Q0P543 19-460): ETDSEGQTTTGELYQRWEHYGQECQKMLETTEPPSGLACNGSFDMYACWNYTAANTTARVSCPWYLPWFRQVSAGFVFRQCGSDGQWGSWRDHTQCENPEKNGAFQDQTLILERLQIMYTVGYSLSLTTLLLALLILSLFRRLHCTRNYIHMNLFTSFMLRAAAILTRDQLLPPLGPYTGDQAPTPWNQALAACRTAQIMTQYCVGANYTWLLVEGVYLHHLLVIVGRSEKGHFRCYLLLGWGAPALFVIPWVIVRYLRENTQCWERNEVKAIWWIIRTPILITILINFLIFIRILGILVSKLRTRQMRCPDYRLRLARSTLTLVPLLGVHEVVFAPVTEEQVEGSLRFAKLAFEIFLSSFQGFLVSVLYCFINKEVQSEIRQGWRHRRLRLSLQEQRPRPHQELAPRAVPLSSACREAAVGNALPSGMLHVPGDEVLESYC
# Procedure: AD293 cells (RRID:CVCL_9804) were transiently transfected 24 h before the assay in six-well plates with plasmids encoding wild-type hGLP1R, mGLP1R, hGIPR or mGIPR using Lipofectamine 2000. AD293 cells were authenticated at source using STR profiling. Cells were detached and treated with a range of agonist concentrations in serum-free DMEM + 0.1% BSA for 30 min at 37 °C in 96-well plates, followed by the addition of lysis buffer 2 (Cisbio) at a 1:2 ratio. Lysates were further diluted 1:10 to avoid spectral interference from the higher concentrations of fluorescent ligands in the HTRF assay, and the concentration of cAMP was determined after the addition of cAMP Dynamic detection reagents (Cisbio).
# mouse islets = assay: Colocalization (Manders' coefficient) of probes in mouse islets; format: cell-based; details: WT islets live, TzCy3 500nM + LUX645 100nM
# Procedure: (§2) Probe labelling was analysed using corrected total cell fluorescence, which is integrated density − (area of selected cell × mean fluorescence of background readings)[52],[53]. Colocalization was determined using Manders’ coefficient, which calculates the proportion of pixels in one channel that also show intensity from both channels. Full width at half maximum was used to analyse labelling patterns at the membrane versus cytoplasm. All analyses were performed in ImageJ (NIH), with brightness and contrast linearly adjusted across the entire image for presentation purposes and applied equally between all states under examination.
# GLP1R^KO/KO islets = assay: Probe labelling of GLP1R^KO/KO islets; format: cell-based, mouse; details: for CTCF values of daLUXendin544: individual values
# Procedure: Mice were humanely killed using a schedule-1 method, and the common bile duct was injected with Serva NB8 (1 mg ml^−1) collagenase. The inflated pancreas was dissected, and islets were isolated using Histopaque-1119 and 1083 (Sigma-Aldrich) gradients and cultured at 37 °C, 5% CO2 in RPMI supplemented with 10% FBS (Gibco), 100 units per ml penicillin and 100 μg ml^−1 streptomycin. Islets were used up to 4 days after isolation.
# as §2
# Sequence of human GLP1R (Nluc-GLP1R) (human) (P43220 24-463): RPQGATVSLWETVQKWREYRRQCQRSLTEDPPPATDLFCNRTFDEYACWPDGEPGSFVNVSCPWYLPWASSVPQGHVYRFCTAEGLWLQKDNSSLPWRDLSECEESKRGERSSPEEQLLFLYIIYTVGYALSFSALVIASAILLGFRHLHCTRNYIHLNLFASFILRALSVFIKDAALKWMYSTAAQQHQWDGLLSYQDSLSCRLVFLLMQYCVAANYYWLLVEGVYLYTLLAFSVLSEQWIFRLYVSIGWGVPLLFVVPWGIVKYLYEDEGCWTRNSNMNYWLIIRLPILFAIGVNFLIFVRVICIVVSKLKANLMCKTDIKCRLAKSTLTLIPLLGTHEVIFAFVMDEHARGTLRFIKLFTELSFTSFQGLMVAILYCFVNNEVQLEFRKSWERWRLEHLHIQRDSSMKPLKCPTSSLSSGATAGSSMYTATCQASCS
# T2 sequence (P43220 24-463): as above
# Sequence of Nluc-tagged human GLP1R (human) (P43220 24-463): as above
compound,measurement,setting,value
daLUXendin660+ (peptide),Kd,[1],6.46 nM
same,Kd,[2],1.38 nM
same,Kd,[3],12.2 nM and 10.7 nM and 14.1 nM
same,Kd,[4],2.14 nM and 1.77 nM and 3.89 nM
same,Kd,[5],6.46 nM
same,Kd,[6],1.38 nM
CC[C@H](C)[C@H](NC(=O)[C@H](CC(C)C)NC(=O)[C@H](Cc1c[nH]c2ccccc12)NC(=O)[C@H](CCC(N)=O)NC(=O)[C@@H](NC(=O)[C@H](Cc1ccccc1)NC(=O)[C@H](C)NC(=O)[C@H](CCCCNC(=O)COCCOCCNC(=O)COCCOCCNC(=O)CC[C@H](NC(=O)CCCCCCCCCCCCCCCCCCC(=O)O)C(=O)O)NC(=O)[C@H](CCC(N)=O)NC(=O)[C@H](C)NC(=O)[C@@H](NC(=O)[C@H](CCCCN)NC(=O)[C@H](CC(=O)O)NC(=O)[C@H](CC(C)C)NC(=O)C(C)(C)NC(=O)[C@@H](NC(=O)[C@H](CO)NC(=O)[C@H](Cc1ccc(O)cc1)NC(=O)[C@H](CC(=O)O)NC(=O)[C@H](CO)NC(=O)[C@@H](NC(=O)[C@H](Cc1ccccc1)NC(=O)[C@@H](NC(=O)CNC(=O)[C@H](CCC(=O)O)NC(=O)C(C)(C)NC(=O)[C@@H](N)Cc1ccc(O)cc1)[C@@H](C)O)[C@@H](C)O)[C@@H](C)CC)[C@@H](C)CC)C(C)C)C(=O)N[C@@H](C)C(=O)NCC(=O)NCC(=O)N1CCC[C@H]1C(=O)N[C@@H](CO)C(=O)N[C@@H](CO)C(=O)NCC(=O)N[C@@H](C)C(=O)N1CCC[C@H]1C(=O)N1CCC[C@H]1C(=O)N1CCC[C@H]1C(=O)N[C@@H](CSC1CC(=O)N(CCNC(=O)CCCCC[N+]2=C(C=CC=CC=C3N(C)c4ccccc4C3(C)C)C(C)(C)c3ccccc32)C1=O)C(N)=O (stereo partly drawn) [daLUXendin660+] (H-Y[Aib]EGTFTSDYSI[Aib]LDKIAQK([AEEA-AEEA-γGlu-C20 diacid])AFVQWLIAGGPSSGAPPPC(X1)-NH2),"Bmax best-fit (nM), hGIPR","Nluc–GIPR (hGIPR); Nluc-tagged hGIPR, NanoBRET saturation, n = 3 independent repeats",0.02314 nM
same,Bmax,"Nluc–GIPR (hGIPR); hGIPR, nonlin fit, One site -- Specific binding, best-fit value of pooled data",0.02314
same,"Bmax best-fit (nM), hGLP1R","Nluc–GLP1R (hGLP1R); Nluc-tagged hGLP1R, NanoBRET saturation, n = 3 independent repeats",0.03361 nM
same,Bmax,"Nluc–GLP1R (hGLP1R); hGLP1R, nonlin fit, One site -- Specific binding, best-fit value of pooled data",0.03361
CC[C@H](C)[C@H](NC(=O)[C@H](CC(C)C)NC(=O)[C@H](Cc1c[nH]c2ccccc12)NC(=O)[C@H](CCC(N)=O)NC(=O)[C@@H](NC(=O)[C@H](Cc1ccccc1)NC(=O)[C@H](C)NC(=O)[C@H](CCCCN)NC(=O)[C@H](CCC(N)=O)NC(=O)[C@H](C)NC(=O)[C@@H](NC(=O)[C@H](CCCCN)NC(=O)[C@H](CC(=O)O)NC(=O)[C@H](CC(C)C)NC(=O)C(C)(C)NC(=O)[C@@H](NC(=O)[C@H](CO)NC(=O)[C@H](Cc1ccc(O)cc1)NC(=O)[C@H](CC(=O)O)NC(=O)[C@H](CO)NC(=O)[C@@H](NC(=O)[C@H](Cc1ccccc1)NC(=O)[C@@H](NC(=O)CNC(=O)[C@H](CCC(=O)O)NC(=O)C(C)(C)NC(=O)[C@@H](N)Cc1ccc(O)cc1)[C@@H](C)O)[C@@H](C)O)[C@@H](C)CC)[C@@H](C)CC)C(C)C)C(=O)N[C@@H](C)C(=O)NCC(=O)NCC(=O)N1CCC[C@H]1C(=O)N[C@@H](CO)C(=O)N[C@@H](CO)C(=O)NCC(=O)N[C@@H](C)C(=O)N1CCC[C@H]1C(=O)N1CCC[C@H]1C(=O)N1CCC[C@H]1C(=O)N[C@@H](CSC1CC(=O)N(CCNC(=O)CCCCC[N+]2=C(C=CC=C3N(C)c4ccccc4C3(C)C)C(C)(C)c3ccccc32)C1=O)C(N)=O (stereo partly drawn) [daLUXendin544] (H-Y[Aib]EGTFTSDYSI[Aib]LDKIAQKAFVQWLIAGGPSSGAPPPC(X2)-NH2),selectivity for mouse GLP1R over GIPR compared to tirzepatide,mGIPR,approximately fourfold less selectivity
same,"M1, daLUXendin544 vs LUXendin645",mouse islets; image 1,0.917
same,"M2, daLUXendin544 vs LUXendin645",mouse islets; image 1,0.994
same,"Manders' R, daLUXendin544 vs LUXendin645",mouse islets; image 1,0.852
same,"Pearson's, daLUXendin544 vs LUXendin645",mouse islets; image 1,0.83
same,"M1, daLUXendin544 vs LUXendin645",mouse islets; image 2,0.927
same,"M2, daLUXendin544 vs LUXendin645",mouse islets; image 2,0.996
same,"Manders' R, daLUXendin544 vs LUXendin645",mouse islets; image 2,0.744
same,"Pearson's, daLUXendin544 vs LUXendin645",mouse islets; image 2,0.679
same,"M1, daLUXendin544 vs LUXendin645",mouse islets; image 3,0.956
same,"M2, daLUXendin544 vs LUXendin645",mouse islets; image 3,0.995
same,"Manders' R, daLUXendin544 vs LUXendin645",mouse islets; image 3,0.727
same,"Pearson's, daLUXendin544 vs LUXendin645",mouse islets; image 3,0.616
same,CTCF values of daLUXendin544,GLP1R^KO/KO islets; GLP1R-/- + GIP,466750 and 425691 and 412346 and 398972 and 803260 and 1574894 and 1388527 and 1122278 and 848564 and 323100 and 555998 and 554147 and 545690
same,CTCF values of daLUXendin544,GLP1R^KO/KO islets; GLP1R-/-,1138974 and 1525024 and 2200632 and 868278 and 1499758 and 2095767 and 1136530 and 1464030 and 649874 and 1541507 and 604319 and 865421
same,CTCF values of daLUXendin544,GLP1R^KO/KO islets; GLP1RWT/WT,3434876 and 3087793 and 4777725 and 2187512 and 1805461 and 1906480 and 1520223 and 2186271 and 2694391 and 5360897 and 5342379 and 1938584 and 1738950
same,reduction of labelling in GLP1R^KO/KO islets,GLP1R^KO/KO islets; versus wild-type islets,~ 50%
daLUXendin660 (peptide),Kd,[1],8.7 nM
same,Kd,[2],2.18 nM
same,Kd,[3],10.2 nM and 4.22 nM and 7.41 nM
